Reference: patent US20170190671A1, “BIS(ARYL)CATECHOL DERIVATIVES AS HERBICIDES” (E I DU PONT DE NEMOURS AND COMPANY, priority 2014, published 2017)

Columns and labels:
Experiment in all cases: Test E preemergence
Assay type in all cases: in vivo
Conditions in all cases: scale 0 to 100
[1] = test system: Brazilian crabgrass (Digitaria horizontalis)
Description: (§1) Seeds of plant species selected from corn (Zea mays), soybean (Glycine max), velvetleaf (Abutilon theophrasti), cocklebur (common cocklebur, Xanthium strumarium), lambsquarters (Chenopodium album), wild poinsettia (Euphorbia heterophylla), palmer pigweed (Amaranthus palmeri), waterhemp (common waterhemp, Amaranthus rudis), surinam grass (Brachiaria decumbens), large (Lg) crabgrass (Digitaria sanguinalis), Brazilian crabgrass (Digitaria horizontalis), fall panicum (Panicum dichotomiflorum), giant foxtail (Setaria faberii), green foxtail (Setaria viridis), goosegrass (Eleusine indica), johnsongrass (Sorghum halepense), ragweed (common ragweed, Ambrosia elatior), barnyardgrass (Echinochloa crus-galli), sandbur (southern sandbur, Cenchrus echinatus), arrowleaf sida (Sida rhombifolia), Italian ryegrass (Lolium multiflorum), dayflower (Virginia (VA) dayflower, Commelina virginica), field bindweed (Convolvulus arvensis), morningglory (Ipomoea coccinea), nightshade (eastern black nightshade, Solanum ptycanthum), kochia (Kochia scoparia), yellow nutsedge (Cyperus esculentus), horseweed (Conyza canadensis), and hairy beggarticks (Bidens pilosa), were planted into a silt loam soil and treated preemergence with test chemicals formulated in a non-phytotoxic solvent mixture which included a surfactant.
(§2) At the same time, plants from these crop and weed species and also waterhemp_RES1, (ALS & Triazine resistant common waterhemp, Amaranthus rudis), and waterhemp_RES2, (ALS & HPPD resistant common waterhemp, Amaranthus rudis) were planted in pots containing Redi-Earth® planting medium (Scotts Company, 14111 Scottslawn Road, Marysville, Ohio 43041) comprising spaghnum peat moss, vermiculite, wetting agent and starter nutrients were treated with postemergence applications of test chemicals formulated in the same manner. Plants ranged in height from 2 to 18 cm for postemergence treatments (1- to 4-leaf stage). Treated plants and controls were maintained in a greenhouse for 14 to 21 days, after which time all species were compared to controls and visually evaluated. Plant response ratings, summarized in Table E, are based on a scale of 0 to 100 where 0 is no effect and 100 is complete control. A dash (-) response means no test result.

[2] = test system: yellow nutsedge (Cyperus esculentus)
Description: as §1, §2

[3] = test system: dayflower (Virginia (VA) dayflower, Commelina virginica)
Description: as §1, §2

[4] = test system: nightshade (eastern black nightshade, Solanum ptycanthum)
Description: as §1, §2

[5] = test system: large (Lg) crabgrass (Digitaria sanguinalis)
Description: as §1, §2

[6] = test system: morningglory (Ipomoea coccinea)
Description: as §1, §2

[7] = test system: fall panicum (Panicum dichotomiflorum)
Description: as §1, §2

[8] = test system: Italian ryegrass (Lolium multiflorum)
Description: as §1, §2

[9] = test system: lambsquarters (Chenopodium album)
Description: as §1, §2

[10] = test system: sandbur (southern sandbur, Cenchrus echinatus)
Description: as §1, §2

[11] = test system: waterhemp (common waterhemp, Amaranthus rudis)
Description: as §1, §2

kochia (Kochia scoparia) = test system: kochia (Kochia scoparia)
Description: as §1, §2

[12] = test system: field bindweed (Convolvulus arvensis)
Description: as §1, §2

[13] = test system: goosegrass (Eleusine indica)
Description: as §1, §2

[14] = test system: arrowleaf sida (Sida rhombifolia)
Description: as §1, §2

[15] = test system: barnyardgrass (Echinochloa crus-galli)
Description: as §1, §2

[16] = test system: ragweed (common ragweed, Ambrosia elatior)
Description: as §1, §2

[17] = test system: palmer pigweed (Amaranthus palmeri)
Description: as §1, §2

[18] = test system: green foxtail (Setaria viridis)
Description: as §1, §2

[19] = test system: hairy beggarticks (Bidens pilosa)
Description: as §1, §2

[20] = test system: Surinam grass (Brachiaria decumbens)
Description: as §1, §2

`Clc1cnc(Oc2cccc(Br)c2Oc2ncc(Cl)cn2)nc1` [Compound 19, 2,2′-[[3-bromo-1,2-phenylene]bis(oxy)]bis[5-chloropyrimidine]] was tested, and the “Plant response rating, Crabgrass, Brazil” value ([1]; 16 g ai/ha) was 0, the “Plant response rating, Crabgrass, Brazil” value ([1]; 31 g ai/ha) was 40 and the “Plant response rating, Crabgrass, Brazil” value ([1]; 62 g ai/ha) was 100. The “Plant response rating, Crabgrass, Brazil” value ([1]; 125 g ai/ha) was 100, the “Plant response rating, Nutsedge, Yellow” value ([2]; 16 g ai/ha) was 0 and the “Plant response rating, Nutsedge, Yellow” value ([2]; 31 g ai/ha) was 0. For the same compound, the “Plant response rating, Nutsedge, Yellow” value ([2]; 62 g ai/ha) was 0, the “Plant response rating, Nutsedge, Yellow” value ([2]; 125 g ai/ha) was 20 and the “Plant response rating, Dayflower, VA” value ([3]; 16 g ai/ha) was 0. The “Plant response rating, Dayflower, VA” value ([3]; 31 g ai/ha) was 0, the “Plant response rating, Dayflower, VA” value ([3]; 62 g ai/ha) was 5 and the “Plant response rating, Dayflower, VA” value ([3]; 125 g ai/ha) was 10. The “Plant response rating, Nightshade” value ([4]; 16 g ai/ha) was 0, the “Plant response rating, Nightshade” value ([4]; 31 g ai/ha) was 0 and the “Plant response rating, Nightshade” value ([4]; 62 g ai/ha) was 65. For the same compound, the “Plant response rating, Nightshade” value ([4]; 125 g ai/ha) was 98, the “Plant response rating, Crabgrass, Large” value ([5]; 16 g ai/ha) was 20 and the “Plant response rating, Crabgrass, Large” value ([5]; 31 g ai/ha) was 80. For the same compound, the “Plant response rating, Crabgrass, Large” value ([5]; 62 g ai/ha) was 100, the “Plant response rating, Crabgrass, Large” value ([5]; 125 g ai/ha) was 100 and the “Plant response rating, Morningglory” value ([6]; 16 g ai/ha) was 0. The “Plant response rating, Morningglory” value ([6]; 31 g ai/ha) was 0, the “Plant response rating, Morningglory” value ([6]; 62 g ai/ha) was 5 and the “Plant response rating, Morningglory” value ([6]; 125 g ai/ha) was 65. The “Plant response rating, Panicum, Fall” value ([7]; 16 g ai/ha) was 100, the “Plant response rating, Panicum, Fall” value ([7]; 31 g ai/ha) was 85 and the “Plant response rating, Panicum, Fall” value ([7]; 62 g ai/ha) was 98. The “Plant response rating, Panicum, Fall” value ([7]; 125 g ai/ha) was 100, the “Plant response rating, Ryegrass, Italian” value ([8]; 16 g ai/ha) was 0 and the “Plant response rating, Ryegrass, Italian” value ([8]; 31 g ai/ha) was 0. The “Plant response rating, Ryegrass, Italian” value ([8]; 62 g ai/ha) was 65, the “Plant response rating, Ryegrass, Italian” value ([8]; 125 g ai/ha) was 70 and the “Plant response rating, Lambsquarters” value ([9]; 16 g ai/ha) was 60. The “Plant response rating, Lambsquarters” value ([9]; 31 g ai/ha) was 100, the “Plant response rating, Lambsquarters” value ([9]; 62 g ai/ha) was 100 and the “Plant response rating, Lambsquarters” value ([9]; 125 g ai/ha) was 100. For the same compound, the “Plant response rating, Sandbur” value ([10]; 16 g ai/ha) was 0, the “Plant response rating, Sandbur” value ([10]; 31 g ai/ha) was 0 and the “Plant response rating, Sandbur” value ([10]; 62 g ai/ha) was 0. The “Plant response rating, Sandbur” value ([10]; 125 g ai/ha) was 20, the “Plant response rating, Waterhemp” value ([11]; 16 g ai/ha) was 65 and the “Plant response rating, Waterhemp” value ([11]; 31 g ai/ha) was 65. For the same compound, the “Plant response rating, Waterhemp” value ([11]; 62 g ai/ha) was 100, the “Plant response rating, Waterhemp” value ([11]; 125 g ai/ha) was 100 and the “Plant response rating, Kochia” value (kochia (Kochia scoparia); 16 g ai/ha) was 35. For the same compound, the “Plant response rating, Kochia” value (kochia (Kochia scoparia); 31 g ai/ha) was 75, the “Plant response rating, Kochia” value (kochia (Kochia scoparia); 62 g ai/ha) was 98 and the “Plant response rating, Kochia” value (kochia (Kochia scoparia); 125 g ai/ha) was 100. The “Plant response rating, Field Bindweed” value ([12]; 16 g ai/ha) was 0, the “Plant response rating, Field Bindweed” value ([12]; 31 g ai/ha) was 0 and the “Plant response rating, Field Bindweed” value ([12]; 62 g ai/ha) was 0. For the same compound, the “Plant response rating, Field Bindweed” value ([12]; 125 g ai/ha) was 10, the “Plant response rating, Goosegrass” value ([13]; 16 g ai/ha) was 5 and the “Plant response rating, Goosegrass” value ([13]; 31 g ai/ha) was 75. For the same compound, the “Plant response rating, Goosegrass” value ([13]; 62 g ai/ha) was 90, the “Plant response rating, Goosegrass” value ([13]; 125 g ai/ha) was 98 and the “Plant response rating, Arrowleaf Sida” value ([14]; 16 g ai/ha) was 65. For the same compound, the “Plant response rating, Arrowleaf Sida” value ([14]; 31 g ai/ha) was 40, the “Plant response rating, Arrowleaf Sida” value ([14]; 62 g ai/ha) was 100 and the “Plant response rating, Arrowleaf Sida” value ([14]; 125 g ai/ha) was 100. For the same compound, the “Plant response rating, Barnyardgrass” value ([15]; 16 g ai/ha) was 0, the “Plant response rating, Barnyardgrass” value ([15]; 31 g ai/ha) was 0 and the “Plant response rating, Barnyardgrass” value ([15]; 62 g ai/ha) was 20. The “Plant response rating, Barnyardgrass” value ([15]; 125 g ai/ha) was 70, the “Plant response rating, Ragweed” value ([16]; 16 g ai/ha) was 0 and the “Plant response rating, Ragweed” value ([16]; 31 g ai/ha) was 0. For the same compound, the “Plant response rating, Ragweed” value ([16]; 62 g ai/ha) was 10, the “Plant response rating, Ragweed” value ([16]; 125 g ai/ha) was 50 and the “Plant response rating, Pigweed, Palmer” value ([17]; 16 g ai/ha) was 0. The “Plant response rating, Pigweed, Palmer” value ([17]; 31 g ai/ha) was 70, the “Plant response rating, Pigweed, Palmer” value ([17]; 62 g ai/ha) was 100 and the “Plant response rating, Pigweed, Palmer” value ([17]; 125 g ai/ha) was 100. For the same compound, the “Plant response rating, Foxtail, Green” value ([18]; 16 g ai/ha) was 0, the “Plant response rating, Foxtail, Green” value ([18]; 31 g ai/ha) was 60 and the “Plant response rating, Foxtail, Green” value ([18]; 62 g ai/ha) was 98. For the same compound, the “Plant response rating, Foxtail, Green” value ([18]; 125 g ai/ha) was 100, the “Plant response rating, Beggarticks” value ([19]; 16 g ai/ha) was 0 and the “Plant response rating, Beggarticks” value ([19]; 31 g ai/ha) was 0. For the same compound, the “Plant response rating, Beggarticks” value ([19]; 62 g ai/ha) was 0, the “Plant response rating, Beggarticks” value ([19]; 125 g ai/ha) was 0 and the “Plant response rating, Surinam Grass” value ([20]; 16 g ai/ha) was 0. The “Plant response rating, Surinam Grass” value ([20]; 31 g ai/ha) was 0, the “Plant response rating, Surinam Grass” value ([20]; 62 g ai/ha) was 10 and the “Plant response rating, Surinam Grass” value ([20]; 125 g ai/ha) was 10.
